# Reference: US20120277269A1 (priority 2008, published 2012)
# “And” between values parts separate entries of the source, which are not always exact repeats. Equal values may be shown once. Read-outs that look alike come from different tables or passages of the source.
# How the values were obtained:
# [1] = tested on: patients with atrial fibrillation
# Experimental: The PETRO-Ex study was conducted in 52 centers in the United States, Denmark, The Netherlands, and Sweden.
# PETRO-Ex began while the PETRO study was ongoing and investigators were initially kept blinded to patient treatment group until PETRO was completed.
# Data were summarized descriptively; no hypothesis was to be tested. Events were analyzed on the basis of the treatment at onset. Incidences were reported as number of patients with events as well as normalized to 100 patient-years on the respective treatment.
# Patients who completed PETRO on 50 mg b.i.d. were switched to 150 mg q.d. upon entry in the PETRO-Ex study (N=93 patients). […] Patients who were down titrated to 50 mg q.d. based on a glomerular filtration rate ≦50 mL/min during PETRO were excluded from the long-term trial; patients down-titrated in other dose levels remained on the q.d. treatment at that dose.
# The total exposure reflects both trials, PETRO and PETRO-Ex, together.
# [2] = human, in vivo
# Experimental: Ezekowitz M D, et al., Dabigatran with or without concomitant aspirin compared with warfarin alone in patients with nonvalvular atrial fibrillation (PETRO study), Am. […] The PETRO study is described below.
# Peak levels are seen within 2-3 hours of oral administration. […] Steady-state is reached within 2-3 days with a twice daily regimen. […] The remainder undergoes conjugation with glucuronic acid to form acylglucuronides which are excreted primarily in the bile.
# [3] = tested on: activated partial thromboplastin time (aPTT), ecarin clotting time, and thrombin clotting time; assay: Anticoagulant pharmacodynamics (clotting times)
# [4] = tested on: patients with chronic atrial fibrillation; assay: PETRO phase 2 12-week dose finding study; format: in vivo, human
# From the text: Primary endpoints were bleeding events and changes in D-dimer. […] Minor bleeding was dose related.
# [5] = tested on: Patients with Non-Valvular Atrial Fibrillation; conditions: in vivo; cited from earlier work
# [6] = tested on: patients with atrial fibrillation at risk of stroke; set-up: Stroke, Ischemic or Unspecified, RR: dose or concentration left out as unconfirmed
# From the text: Median follow-up was 2.0 years and the primary outcome was stroke or systemic embolism.
# Patients were recruited from 951 clinical centers in 44 countries. In brief, patients were eligible if they had atrial fibrillation documented on electrocardiogram at screening or within 6 months; and at least one of the following: prior stroke or transient ischemic attack; left ventricular ejection fraction less than 40%; New York Heart Association heart failure symptoms of Class 2 or greater within 6 months; age at least 75 years; or age at least 65 years with diabetes mellitus, hypertension or coronary artery disease.
# The time in therapeutic range was calculated by the method of Rosendaal (Rosendaal F R, et al., A method to determine the optimal intensity of oral anticoagulant therapy, Thromb Haemost, 1993, 69:236-239), excluding INRs from the first week and after discontinuations. […] Concomitant use of aspirin (less than 100 mg/day) or other antiplatelet agents was allowed.
# Liver function testing was performed monthly during the first year of follow-up.
# The primary study outcome was stroke or systemic embolism. The primary safety outcome was major hemorrhage. Secondary outcomes were stroke, systemic embolism and death. Other outcomes were myocardial infarction, pulmonary embolism, transient ischemic attacks, and hospitalizations. The primary net benefit-risk outcome was the composite of stroke, systemic embolism, pulmonary embolism, myocardial infarction, death or major hemorrhage. Stroke was defined as sudden onset of focal neurological deficit consistent with the territory of a major cerebral artery and categorized as ischemic, hemorrhagic or unspecified. Hemorrhagic transformation of ischemic stroke was not considered as hemorrhagic stroke. Intracranial hemorrhage included hemorrhagic stroke and sub-dural or sub-arachnoid hemorrhage. Systemic embolism was an acute vascular occlusion of an extremity or organ documented by imaging, surgery or autopsy. Major bleeding was defined as a reduction in hemoglobin level of at least […] or transfusion of at least 2 units of blood or symptomatic bleeding in a critical area or organ. Life-threatening bleeding was a subset of major bleeding that included fatal bleeding, symptomatic intracranial bleeding, bleeding with hemoglobin decrease of more than […] or requiring transfusion of more than 4 units of blood or requiring inotropic agents or necessitating surgery. All other bleeding was considered minor.
# All primary and secondary outcome events were blindly and doubly adjudicated. An international team of adjudicators reviewed documents in local languages after blinding; or documents were translated by a independent group and blinded centrally. All transient ischemic attacks were reviewed to ensure that strokes had not been missed. To detect possible unreported events, symptom questionnaires were regularly administered to patients, and adverse events and hospitalization reports were scrutinized for unreported primary or secondary outcomes.
# If maximum of the two p-values was greater than 0.025, the minimum of the two p-values must be less than 0.0125, one-sided, to claim statistical significance. All analyses were based on intention-to-treat.
# [7] = individual patients with LFT abnormalities, one table line per patient (age c0, sex c1), # = with concomitant Bilirubin elevation to >2xULN
smiles,measurement,setting,value
"CCCCCCOC(=O)NC(=N)c1ccc(NCc2nc3cc(C(=O)N(CCC(=O)OCC)c4ccccn4)ccc3n2C)cc1 [Dabigatran etexilate, 1-methyl-2-[N-[4-(N-n-hexyloxycarbonylamidino)phenyl]aminomethyl]benzimidazol-5-ylcarboxylic ac id-N-(2-pyridyl)-N-(2-ethoxycarbonylethyl)amides]","ALT or AST >2xULN, number of patients",[1]; 50 mg b.i.d.,0
same,"ALT or AST >3xULN and Bili >2xULN within 30 days, number of patients",[1]; 50 mg b.i.d.,0
same,"ALT or AST >3xULN, number of patients",[1]; 50 mg b.i.d.,0
same,"ALT or AST >5xULN, number of patients",[1]; 50 mg b.i.d.,0
same,"Adverse Events leading to premature discontinuation, number of patients",[1]; 50 mg b.i.d.,5
same,"MI, number of patients",[1]; 50 mg b.i.d.,0
same,"Major Bleeds with aspirin, number of patients",[1]; 50 mg b.i.d.,0
same,"Major Bleeds without aspirin, number of patients",[1]; 50 mg b.i.d.,0
same,"Major Bleeds, number of patients",[1]; 50 mg b.i.d.,0
same,"Other MACE, number of patients",[1]; 50 mg b.i.d.,2
same,"Stroke and Systemic Thromboembolism, number of patients",[1]; 50 mg b.i.d.,3
same,"TIA, number of patients",[1]; 50 mg b.i.d.,0
same,"ALT or AST >2xULN, number of patients",[1]; 50 mg q.d.,0
same,"ALT or AST >3xULN and Bili >2xULN within 30 days, number of patients",[1]; 50 mg q.d.,0
same,"ALT or AST >3xULN, number of patients",[1]; 50 mg q.d.,0
same,"ALT or AST >5xULN, number of patients",[1]; 50 mg q.d.,0
same,"Adverse Events leading to premature discontinuation, number of patients",[1]; 50 mg q.d.,0
same,"MI, number of patients",[1]; 50 mg q.d.,0
same,"Major Bleeds with aspirin, number of patients",[1]; 50 mg q.d.,0
same,"Major Bleeds without aspirin, number of patients",[1]; 50 mg q.d.,0
same,"Major Bleeds, number of patients",[1]; 50 mg q.d.,0
same,"Other MACE, number of patients",[1]; 50 mg q.d.,0
same,"Stroke and Systemic Thromboembolism, number of patients",[1]; 50 mg q.d.,0
same,"TIA, number of patients",[1]; 50 mg q.d.,0
same,"ALT or AST >2xULN, number of patients",[1]; 150 mg b.i.d.,21
same,"ALT or AST >3xULN and Bili >2xULN within 30 days, number of patients",[1]; 150 mg b.i.d.,3
same,"ALT or AST >3xULN, number of patients",[1]; 150 mg b.i.d.,13
same,"ALT or AST >5xULN, number of patients",[1]; 150 mg b.i.d.,7
same,"Adverse Events leading to premature discontinuation, number of patients",[1]; 150 mg b.i.d.,67
same,"MI, number of patients",[1]; 150 mg b.i.d.,6
same,"Major Bleeds with aspirin, number of patients",[1]; 150 mg b.i.d.,11
same,"Major Bleeds without aspirin, number of patients",[1]; 150 mg b.i.d.,18
same,"Major Bleeds without aspirin, rate",[1]; 150 mg b.i.d.,3.2 % per year
same,"Major Bleeds, number of patients",[1]; 150 mg b.i.d.,29
same,"Other MACE, number of patients",[1]; 150 mg b.i.d.,7
same,"Stroke and Systemic Thromboembolism, number of patients",[1]; 150 mg b.i.d.,7
same,"TIA, number of patients",[1]; 150 mg b.i.d.,1
same,"ALT or AST >2xULN, number of patients",[1]; 150 mg q.d.,2
same,"ALT or AST >3xULN and Bili >2xULN within 30 days, number of patients",[1]; 150 mg q.d.,0
same,"ALT or AST >3xULN, number of patients",[1]; 150 mg q.d.,0
same,"ALT or AST >5xULN, number of patients",[1]; 150 mg q.d.,0
same,"Adverse Events leading to premature discontinuation, number of patients",[1]; 150 mg q.d.,8
same,"MI, number of patients",[1]; 150 mg q.d.,0
same,"Major Bleeds with aspirin, number of patients",[1]; 150 mg q.d.,0
same,"Major Bleeds without aspirin, number of patients",[1]; 150 mg q.d.,3
same,"Major Bleeds without aspirin, rate",[1]; 150 mg q.d.,6.5 % per year
same,"Major Bleeds, number of patients",[1]; 150 mg q.d.,3
same,"Other MACE, number of patients",[1]; 150 mg q.d.,0
same,"Stroke and Systemic Thromboembolism, number of patients",[1]; 150 mg q.d.,3
same,"TIA, number of patients",[1]; 150 mg q.d.,0
same,"ALT or AST >2xULN, number of patients",[1]; 300 mg b.i.d.,4
same,"ALT or AST >3xULN and Bili >2xULN within 30 days, number of patients",[1]; 300 mg b.i.d.,0
same,"ALT or AST >3xULN, number of patients",[1]; 300 mg b.i.d.,2
same,"ALT or AST >5xULN, number of patients",[1]; 300 mg b.i.d.,1
same,"Adverse Events leading to premature discontinuation, number of patients",[1]; 300 mg b.i.d.,21
same,"MI, number of patients",[1]; 300 mg b.i.d.,0
same,"Major Bleeds with aspirin, number of patients",[1]; 300 mg b.i.d.,6
same,"Major Bleeds without aspirin, number of patients",[1]; 300 mg b.i.d.,4
same,"Major Bleeds without aspirin, rate",[1]; 300 mg b.i.d.,6.3 % per year
same,"Major Bleeds, number of patients",[1]; 300 mg b.i.d.,10
same,"Other MACE, number of patients",[1]; 300 mg b.i.d.,1
same,"Stroke and Systemic Thromboembolism, number of patients",[1]; 300 mg b.i.d.,1
same,"TIA, number of patients",[1]; 300 mg b.i.d.,0
same,"ALT or AST >2xULN, number of patients",[1]; 300 mg q.d.,3
same,"ALT or AST >3xULN and Bili >2xULN within 30 days, number of patients",[1]; 300 mg q.d.,1
same,"ALT or AST >3xULN, number of patients",[1]; 300 mg q.d.,3
same,"ALT or AST >5xULN, number of patients",[1]; 300 mg q.d.,3
same,"Adverse Events leading to premature discontinuation, number of patients",[1]; 300 mg q.d.,19
same,"MI, number of patients",[1]; 300 mg q.d.,1
same,"Major Bleeds with aspirin, number of patients",[1]; 300 mg q.d.,2
same,"Major Bleeds without aspirin, number of patients",[1]; 300 mg q.d.,3
same,"Major Bleeds without aspirin, rate",[1]; 300 mg q.d.,2.1 % per year
same,"Major Bleeds, number of patients",[1]; 300 mg q.d.,5
same,"Other MACE, number of patients",[1]; 300 mg q.d.,1
same,"Stroke and Systemic Thromboembolism, number of patients",[1]; 300 mg q.d.,5
same,"TIA, number of patients",[1]; 300 mg q.d.,0
same,"Serious adverse events: cardiac disorders, number of patients",[1]; PETRO-Ex,80
same,"Serious adverse events: gastrointestinal disorders, number of patients",[1]; PETRO-Ex,28
same,"Serious adverse events: infections, number of patients",[1]; PETRO-Ex,34
same,"Serious adverse events: nervous system disorders, number of patients",[1]; PETRO-Ex,33
same,"Serious adverse events, number of patients","[1]; PETRO-Ex, including bleeding and thrombotic events",184
same,"ALT or AST >2xULN, number of patients","[1]; Total, all doses",30
same,"ALT or AST >3xULN and Bili >2xULN within 30 days, number of patients","[1]; Total, all doses",4
same,"ALT or AST >3xULN, number of patients","[1]; Total, all doses",18
same,"ALT or AST >5xULN, number of patients","[1]; Total, all doses",11
same,"Adverse Events leading to premature discontinuation, number of patients","[1]; Total, all doses",120
same,"MI, number of patients","[1]; Total, all doses",7
same,"Major Bleeds with aspirin, number of patients","[1]; Total, all doses",19
same,"Major Bleeds without aspirin, number of patients","[1]; Total, all doses",26
same,"Major Bleeds without aspirin, rate","[1]; Total, all doses",3.2 % per year
same,"Major Bleeds, number of patients","[1]; Total, all doses",44
same,"Other MACE, number of patients","[1]; Total, all doses",11
same,"Stroke and Systemic Thromboembolism, number of patients","[1]; Total, all doses",20
same,"TIA, number of patients","[1]; Total, all doses",1
same,"ALT or AST >3xULN and Bili >2xULN within 30 days, number of patients","[1]; Total, all doses, listed as dabigatran etexilate",four
same,"Oral bioavailability, average",[2]; po,6.5%
same,Time to peak levels,[2]; po,2 to 3 h
same,Onset of anticoagulant effect after dosing,[3],within one hour
same,"Major bleeding events, number","[4]; 300 mg b.i.d. plus ASA groups, 12 weeks",Four
same,Elevated transaminases >3× upper limit of normal (ULN),[4]; all dabigatran etexilate-treated patients,0.9%
same,Minor bleeding,[4]; in vivo,dose related
CCOC(=O)CN[C@@H](C(=O)N1CC[C@H]1C(=O)NCc1ccc(/C(N)=N\O)cc1)C1CCCCC1 [Ximelagatran],Hepatotoxicity,[5],found to be hepatotoxic
[H]/N=C(/N)c1ccc(NCc2nc3cc(C(=O)N(CCC(=O)O)c4ccccn4)ccc3n2C)cc1 [Dabigatran],LFT abnormality ALT/ULN,[1]; [7],>5x (4×) and >5x^# (2×) and >3x (5×) and >3x^#
same,LFT abnormality AST/ULN,[1]; [7],>5x^# (4×) and >5x (4×) and >3x (5×)
same,Time to steady-state,[2],2 to 3 days
same,"Effect on aPTT, ecarin clotting time, and thrombin clotting time",[3],dose dependent prolongation
same,"Stroke, Ischemic or Unspecified, RR",[6],0.68
same,"Stroke, systemic embolism, pulmonary embolism, myocardial infarction death or major bleed (net benefit), RR",[6]; Dabigatran 110 mg vs. Warfarin,0.92
same,"Stroke, systemic embolism, pulmonary embolism, myocardial infarction death or major bleed (net benefit), RR",[6]; Dabigatran 150 mg vs. 110 mg,0.98
same,"Stroke, systemic embolism, pulmonary embolism, myocardial infarction death or major bleed (net benefit), RR",[6]; Dabigatran 150 mg vs. Warfarin,0.90
same,"Stroke, RR",[6]; Dabigatran 180 mg vs. 110 mg,0.70
same,Hepatotoxicity in serial measurement of liver function tests,"[6]; human, in vivo",no evidence of hepatotoxicity
